Reference: patent US8354447B2, “mGLU receptors antagonists for treating disorders associated with mGLU receptors including addiction and depression” (The Scripps Research Institute, priority 2002, dated 2013)

Tests used:
male Wistar rats [1] = test: Nicotine self-administration and food-maintained responding on a fixed ratio schedule in rats; assay type: in vivo, rat
Experimental: Two additional groups of rats were allowed to respond for food (45 mg Noyes food pellet) under a FR5 TO20 sec (n=10), and a FR5 TO210 sec (n=10) schedule. The two different schedules were employed to allow assessment of the effects of MPEP on responding for food under a reinforcement schedule (FR5 TO20 sec) identical to that used for nicotine, and under a reinforcement schedule (FR5 TO210) that equated response rates for food to those seen for nicotine. […] All test sessions were conducted for one hour per day, five days per week.
After acquiring stable nicotine self-administration at either 0.01 mg/kg/infusion (n=9) or 0.03 mg/kg/infusion (n=9), or stable food-maintained responding on the FR5 TO 20 sec schedule (n=10) or the FR5 TO210 sec schedule (n=10), drug testing was initiated. MPEP (0, 1, 3 and 9 mg/kg) was administered intraperitoneally 30 minutes before the session, according to a Latin Square design, with at least six days elapsing between each test dose.

Wistar rats [2] = test: Cocaine self-administration under a fixed ratio schedule, ShA and LgA rats; assay type: in vivo, rat
Experimental: Rats (n=14) were food restricted to maintain them at 85% of their normal body weight obtained under free-feeding conditions, then trained to press a lever for 45 mg food pellets on a fixed-ratio 5 (FR5) schedule of reinforcement. […] Thus, a FR5 TO20 sec schedule of reinforcement was used.
The frequency of the stimulation was selected for individual animals so that baseline current-intensity thresholds of each subject were within 50-200 μA, and thus allowed both threshold elevations and lowerings to be detected. The frequency was held constant throughout the experiment. […] Current intensities were altered in 5 μA steps. […] Each testing session was ~30 min in duration. […] From day 10 onwards (the ‘escalation’ period), access to cocaine self-administration was increased from 1 h to 6 h per daily session in one group of rats (Long Access or LgA rats; n=7). Previous studies have shown that this schedule of access to cocaine self-administration results in a progressive increase or ‘escalation’ in daily cocaine consumption (Ahmed and Koob, 1997; Ahmed et al. 2001). In the other group (Short Access or ShA rats; n=7), access to cocaine self-administration was maintained at 1 h per daily session. Previous studies have shown that this schedule of access to cocaine self-administration maintains a stable level of daily cocaine consumption. After 22 days of 1 h (ShA) or 6 h (LgA) daily access to cocaine self-administration, both groups of rats received their first MPEP injection.

Wistar rats [3] = test: Cocaine-induced lowering of ICSS thresholds; assay type: in vivo, rat
drug-naïve rats = details: cited from earlier work
rats = details: 2.5-10 mg/kg i.p.; cited from earlier work
mice = details: Chiamulera et al. 2001; cited from earlier work
male Wistar rats [4] = details: nicotine 0.25 mg/kg SC
From the text: Trials began with an electrical stimulus followed by a 7.5-s response window within which the animal could make a response to receive a second contingent stimulus identical to the initial noncontingent stimulus. A response during this 7.5-s window was considered a positive response, whereas the lack of a response was considered a negative response. Additional responses during a 2-s period immediately following a positive response had no consequence. The intertrial interval (ITI) that followed either a positive response or the end of the response window (in the case of a negative response) ranged from 7.5 to 12.5 s with an average duration of 10 s. […] Subjects then were tested on a current-threshold procedure in which stimulus intensities were varied during four alternating descending and ascending series with a step size of 5 mA. Blocks of three trials were offered at each current step with the starting current of the first descending series set at 30-40 mA above the subjects' individual baseline thresholds estimated at the end of preliminary training. […] An ascending series was terminated after two consecutive blocks of trials during which the animal made positive responses on at least two out of the three trials or after 15 successive increments were presented. The mean of the four current thresholds from the alternating series was defined as the subject's ICSS threshold for that session. A series was terminated after either 15 stimulus increments (or decrements) had occurred, or after the determination of the threshold for the series (see below). Each test session typically lasted 30 min.

[5] = 9 mg/kg/day nicotine salt (3.16 mg/kg, free base) by osmotic mini-pump; cited from earlier work
[6] = MPEP 3 mg/kg, 10, 40, 70 and 100 min

## Cc1cccc(C#Cc2ccccc2)n1 [MPEP, 2-methyl-6-(phenylethynyl)-pyridine]
Male Wistar rats [1]; 1 mg/kg MPEP, 0.01 mg/kg/inf nic, FR5 TO20 sec
  Number of reinforcers earned during the entire 1 hour session: 21 ± 3.1
Male Wistar rats [1]; 1 mg/kg MPEP, 0.03 mg/kg/inf nic, FR5 TO20 sec
  Number of reinforcers earned during the entire 1 hour session: 13 ± 1.9
Male Wistar rats [1]; 1 mg/kg MPEP, 45 mg food pellet, FR5 TO20 sec
  Number of reinforcers earned during the entire 1 hour session: 131.3 ± 8.2
Male Wistar rats [1]; 1 mg/kg MPEP, 45 mg food pellet, FR5 TO210 sec
  Number of reinforcers earned during the entire 1 hour session: 16.3 ± 0.3
Male Wistar rats [1]; 3 mg/kg MPEP, 0.01 mg/kg/inf nic, FR5 TO20 sec
  Number of reinforcers earned during the entire 1 hour session: 11 ± 2.7
Male Wistar rats [1]; 3 mg/kg MPEP, 0.03 mg/kg/inf nic, FR5 TO20 sec
  Number of reinforcers earned during the entire 1 hour session: 11.4 ± 1.2
Male Wistar rats [1]; 3 mg/kg MPEP, 45 mg food pellet, FR5 TO20 sec
  Number of reinforcers earned during the entire 1 hour session: 122.2 ± 7.4
Male Wistar rats [1]; 3 mg/kg MPEP, 45 mg food pellet, FR5 TO210 sec
  Number of reinforcers earned during the entire 1 hour session: 15.2 ± 0.5
Male Wistar rats [1]; 9 mg/kg MPEP, 0.01 mg/kg/inf nic, FR5 TO20 sec
  Number of reinforcers earned during the entire 1 hour session: 9.1 ± 3.0
Male Wistar rats [1]; 9 mg/kg MPEP, 0.03 mg/kg/inf nic, FR5 TO20 sec
  Number of reinforcers earned during the entire 1 hour session: 4.8 ± 1.5
Male Wistar rats [1]; 9 mg/kg MPEP, 45 mg food pellet, FR5 TO20 sec
  Number of reinforcers earned during the entire 1 hour session: 109 ± 12.98
Male Wistar rats [1]; 9 mg/kg MPEP, 45 mg food pellet, FR5 TO210 sec
  Number of reinforcers earned during the entire 1 hour session: 15.2 ± 0.6
Male Wistar rats [1]; 3 and 9 mg/kg MPEP, 0.01 mg/kg/infusion nicotine
  nicotine self-administration: significantly reduced self-administration of the 0.01 mg/kg/infusion nicotine dose relative to the vehicle condition
Male Wistar rats [1]; MPEP 1, 3, 9 mg/kg, 0.03 mg/kg/inf nicotine
  nicotine self-administration: decreasing self-administration of the 0.03 mg/kg/inf dose only at 9 mg/kg
Male Wistar rats [1]; MPEP 1-9 mg/kg
  inactive lever presses: no effect of MPEP on inactive lever presses for any of the reinforcers
Wistar rats [2]; 3, 6 and 9 mg/kg MPEP, ShA and LgA rats collapsed
  cocaine responding: significantly decreased cocaine responding in the collapsed group
Wistar rats [2]; 3, 6 and 9 mg/kg MPEP, ShA rats
  cocaine responding: significantly decreased cocaine responding in ShA rats
Wistar rats [2]; MPEP 1-9 mg/kg, FR5 TO20 sec
  cocaine self-administration: decreased cocaine self-administration in ShA and LgA rats
Wistar rats [2]; only the highest dose of MPEP (9 mg/kg), LgA rats
  cocaine responding: significantly decreased cocaine responding in LgA rats
Wistar rats [3]; MPEP 3 mg/kg
  duration of cocaine-induced lowering of ICSS thresholds: did not attenuate the duration of time that cocaine lowered ICSS thresholds
Wistar rats [3]; [6]
  ICSS Thresholds: had no effect on ICSS thresholds at any time-point
  ICSS response Latencies: had no effect on response latencies at any time-point
Wistar rats [3]; MPEP 9 mg/kg before cocaine 10 mg/kg, compared to cocaine-treated rats that received vehicle
  ICSS Thresholds: significantly elevated in cocaine-treated rats that previously received MPEP (9 mg/kg) compared to cocaine-treated rats that received vehicle injection
Wistar rats [3]; MPEP 9 mg/kg before cocaine 10 mg/kg, compared to saline-treated rats pretreated with vehicle
  ICSS Thresholds: still significantly lowered compared to saline-treated rats pretreated with vehicle
Wistar rats [3]; MPEP 1-9 mg/kg
  magnitude of cocaine-induced lowering of ICSS thresholds: did not attenuate the magnitude of the lowering in ICSS thresholds observed after systemic cocaine administration
Wistar rats [3]; MPEP alone, 6 and 9 mg/kg significant
  ICSS Thresholds: significantly elevated ICSS thresholds
Wistar rats [3]; MPEP, only the highest dose (9 mg/kg)
  ICSS response Latencies: significantly increased response latencies
drug-naïve rats; 0.25 mg/kg nicotine (Harrison et al. 2002)
  reward-lowering effect of nicotine in a brain reward stimulation procedure: had no effect on the reward-lowering effect of 0.25 mg/kg nicotine
drug-naïve rats; previous studies (Harrison et al., 2002; Macey et al., 2001)
  dose that elevated ICSS thresholds in drug-naïve rats: ≥ 3 mg/kg
rats
  exploratory locomotor activity: had no effect on exploratory locomotor activity in rats
mice
  cocaine self-administration: dose-dependent reduction in cocaine self-administration without affecting responding for food

## CN1CCCC1c1cccnc1 (single isomer, unassigned; (-)) [nicotine, (−)-1-methyl-2-(3-pyridyl) pyrrolidine]
Male Wistar rats [4]
  brain reward thresholds: resulted in lowering of brain reward thresholds
[5]
  stable plasma nicotine levels: ~44 ng/mL
